Assay results: PMC3417242 (Journal of medicinal chemistry, 2012)
Read-outs that look alike come from different tables or passages of the source.

Columns and labels:
H146 cell line [1] = assay: Cell death induction by trypan blue assay; type: cell-based, Human; settings: 24 h
H146 cell line [2] = assay: Western blotting of caspase-3 and PARP cleavage in cells; type: cell-based, Human; settings: 24 h
Bcl-xL [3] = biological target: T1, Bcl-xL (Homo sapiens, UniProt Q07817); assay: Fluorescence polarization-based; type: binding
T1 sequence (Q07817 whole entry): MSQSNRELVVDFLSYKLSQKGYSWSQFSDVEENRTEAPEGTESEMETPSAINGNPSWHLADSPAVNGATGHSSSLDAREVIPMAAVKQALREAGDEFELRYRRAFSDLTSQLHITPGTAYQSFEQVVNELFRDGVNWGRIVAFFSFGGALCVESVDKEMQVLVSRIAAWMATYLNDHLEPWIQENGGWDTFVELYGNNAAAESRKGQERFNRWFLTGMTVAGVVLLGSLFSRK

[4] = tested on: H146 xenograft tumor tissues; assay: In vivo pharmacodynamic; parameters: species or system SCID mice; settings: at its maximum tolerated dose (data not shown)
Bcl-xL [5] = biological target: T1, Bcl-xL; settings: read-out: Ki, binding to Bcl-xL; previously reported; cited from earlier work
[6] = tested on: H146 small-cell lung cancer cell line; assay: Cell growth inhibition, H146; type: cell-based, Human
[7] = tested on: H1417 small-cell lung cancer cell line; assay: Cell growth inhibition, H1417; type: cell-based, Human
Bcl-2 [8] = biological target: T2, Bcl-2 (Homo sapiens, UniProt P10415); assay: Fluorescence polarization-based; type: binding; settings: for times less potent than 12 in binding to Bcl-2: compared with compound 12
T2 sequence (P10415 whole entry): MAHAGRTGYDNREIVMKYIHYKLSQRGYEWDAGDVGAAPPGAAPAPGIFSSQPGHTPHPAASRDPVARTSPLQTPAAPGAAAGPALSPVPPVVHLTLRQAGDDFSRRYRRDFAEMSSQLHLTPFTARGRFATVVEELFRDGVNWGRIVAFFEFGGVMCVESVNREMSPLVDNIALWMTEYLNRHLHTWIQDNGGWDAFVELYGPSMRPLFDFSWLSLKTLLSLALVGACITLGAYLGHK

[9] = tested on: H146, H1417 and H1963 cancer cell lines; type: cell-based, Human
Bcl-2 [10] = biological target: T2, Bcl-2; assay: Cell-free mitochondrial functional assay, Bcl-2; settings: compared with compound 1
H146 cancer cells = assay: Release of cytochrome C from mitochondria in cells; type: cell-based, Human; settings: for Release of cytochrome C and cleavage of PARP at 30 nM: 2 h, H146 cells; for Release of cytochrome C from mitochondria in H146 cells: treatment as short as 2 h
SCID mice = assay: Toxicity in SCID mice; type: in vivo; settings: 25 mg/kg, daily intravenous dosing, five days a week for 2 weeks
H146 xenograft model = assay: In vivo efficacy study, H146 xenograft model; settings: 25 mg/kg daily i.v. 5 days a week for 2 weeks
[11] = tested on: H1963 small-cell lung cancer cell line; assay: Cell growth inhibition, H1963; type: cell-based; settings: read-out: Cell Growth Inhibition (IC50 ± SD) H1963

CN(C)CC[C@H](CSc1ccccc1)Nc1ccc(S(=O)(=O)NC(=O)c2ccc(N3CCN(Cc4ccccc4-c4ccc(Cl)cc4)CC3)cc2)cc1[N+](=O)[O-] [Compound 1, reference compound]
Cell death induction in H146 (H146 cell line [1]): effectively induce cell death in H146 in a dose-dependent manner | Cleavage of caspase-3 and PARP in H146 (H146 cell line [2]): induce cleavage of caspase-3 and poly (ADP- ribose) polymerase (PARP) in a dose-dependent manner

CCc1c(-c2ccc(Cl)cc2)c(-c2cccc(N3CCN(c4ccc(NS(=O)(=O)c5ccc(N[C@H](CCN(C)C)CSc6ccccc6)c([N+](=O)[O-])c5)cc4)CC3)c2)c(C(=O)O)n1C [Compound 6]
Ki (Bcl-xL [3]; read-out: Binding Affinities Bcl-xL Ki ± SD, FP competitive binding): < 0.001 µM | Apoptosis induction in H146 xenograft tumor tissues [4]: fails to induce robust apoptosis | Ki (Bcl-xL [5]): < 0.001 µM

CN1CCN(CCCNC(=O)c2c(-c3ccccc3)c(-c3ccc(Cl)cc3)cn2CC[C@H](O)CO)CC1 [Compound 7, reference compound]
IC50 ([6]; Homo sapiens, NCI-H146, read-out: Cell Growth Inhibition (IC50 ± SD) H146): > 10 µM | IC50 ([7]; Homo sapiens, NCI-H1417, read-out: Cell Growth Inhibition (IC50 ± SD) H1417): > 10 µM

Cc1c(C(=O)NCCCN2CCN(C)CC2)c(-c2ccccc2)c(-c2ccc(Cl)cc2)n1C [Compound 8, 5-(4-Chlorophenyl)-1,2-dimethyl-N-(3-(4-methylpiperazin-1-yl)propyl)-4-phenyl-1H-pyrrole-3-carboxamide]
times more potent than 7 in binding to Bcl-2 (Bcl-2 [8]; Ki compared with compound 7): 2 times | times more potent than 7 in binding to Bcl-xL (Bcl-xL [3]; Ki compared with compound 7): 2 times | Cellular activity (cell growth inhibition) [9]: minimal cellular activity

Cc1c(C(=O)NCCCN2CCN(C)CC2)c(-c2cccc(N3CCN(c4ccc(NS(=O)(=O)c5ccc(N[C@H](CCN(C)C)CSc6ccccc6)c([N+](=O)[O-])c5)cc4)CC3)c2)c(-c2ccc(Cl)cc2)n1C [Compound 10, (R)-5-(4-Chlorophenyl)-4-(3-(4-(4-(4-((4-(dimethylamino)-1-(phenylthio)butan-2-yl)amino)-3-nitrophenylsulfonamido)phenyl)piperazin-1-yl)phenyl)-1,2-dimethyl-N-(3-(4-methylpiperazin-1-yl)propyl)-1H-pyrrole-3-carboxamide]
times less potent than 1 in the Bcl-2 functional assay (Bcl-2 [10]): 3 times

CNC(=O)c1c(-c2cccc(N3CCN(c4ccc(NS(=O)(=O)c5ccc(N[C@H](CCN(C)C)CSc6ccccc6)c([N+](=O)[O-])c5)cc4)CC3)c2)c(-c2ccc(Cl)cc2)n(C)c1C [Compound 11, (R)-5-(4-Chlorophenyl)-4-(3-(4-(4-(4-((4-(dimethylamino)-1-(phenylthio)butan-2-yl)amino)-3-nitrophenylsulfonamido)phenyl)piperazin-1-yl)phenyl)-N,1,2-trimethyl-1H-pyrrole-3-carboxamide]
times more potent than compound 10 in cell growth inhibition [9]: 2–4 times

Cc1c(C(=O)O)c(-c2cccc(N3CCN(c4ccc(NS(=O)(=O)c5ccc(N[C@H](CCN(C)C)CSc6ccccc6)c([N+](=O)[O-])c5)cc4)CC3)c2)c(-c2ccc(Cl)cc2)n1C [Compound 12, (R)-5-(4-Chlorophenyl)-4-(3-(4-(4-(4-((4-(dimethylamino)-1-(phenylthio)butan-2-yl)amino)-3-nitrophenylsulfonamido)phenyl)piperazin-1-yl)phenyl)-1,2-dimethyl-1H-pyrrole-3-carboxylic acid]
Cell death induction in H146 (H146 cell line [1]): effectively induce cell death in H146 in a dose-dependent manner | Cleavage of caspase-3 and PARP in H146 (H146 cell line [2]): induce cleavage of caspase-3 and poly (ADP- ribose) polymerase (PARP) in a dose-dependent manner | times more potent than compound 10 in cell growth inhibition [9]: 2–4 times

Cc1cc(-c2cccc(N3CCN(c4ccc(NS(=O)(=O)c5ccc(N[C@H](CCN(C)C)CSc6ccccc6)c([N+](=O)[O-])c5)cc4)CC3)c2)c(-c2ccc(Cl)cc2)n1C [Compound 13, (R)-N-(4-(4-(3-(2-(4-Chlorophenyl)-1,5-dimethyl-1H-pyrrol-3-yl)phenyl)piperazin-1-yl)phenyl)-4-((4-(dimethylamino)-1-(phenylthio)butan-2-yl)amino)-3-nitrobenzenesulfonamide]
times less potent than 12 in binding to Bcl-2 (Bcl-2 [8]): 100 times

CCn1c(C)c(C(=O)O)c(-c2cccc(N3CCN(c4ccc(NS(=O)(=O)c5ccc(N[C@H](CCN(C)C)CSc6ccccc6)c([N+](=O)[O-])c5)cc4)CC3)c2)c1-c1ccc(Cl)cc1 [Compound 14, (R)-5-(4-Chlorophenyl)-4-(3-(4-(4-(4-((4-(dimethylamino)-1-(phenylthio)butan-2-yl)amino)-3-nitrophenylsulfonamido)phenyl)piperazin-1-yl)phenyl)-1-ethyl-2-methyl-1H-pyrrole-3-carboxylic acid]
Cell death induction in H146 at 10 nM (H146 cell line [1]): induce robust cell death | Cell death induction in H146 (H146 cell line [1]): effectively induce cell death in H146 in a dose-dependent manner | Cleavage of caspase-3 and PARP in H146 (H146 cell line [2]): induce cleavage of caspase-3 and poly (ADP- ribose) polymerase (PARP) in a dose-dependent manner | Release of cytochrome C and cleavage of PARP at 30 nM (H146 cancer cells): robust | Release of cytochrome C from mitochondria in H146 cells (H146 cancer cells): induces a release of cytochrome C in a dose-dependent manner | Tolerability in SCID mice (SCID mice): well tolerated | Inhibition of tumor growth (H146 xenograft model): very effective in inhibition of tumor growth | Maximum weight loss during the treatment (H146 xenograft model): < 10% | Other signs of toxicity (H146 xenograft model): no other signs of toxicity observed | Tumor regression during the treatment phase (H146 xenograft model): capable of achieving tumor regression

Cc1c(C(=O)O)c(-c2cccc(N3CCN(c4ccc(NS(=O)(=O)c5ccc(N[C@H](CCN(C)C)CSc6ccccc6)c([N+](=O)[O-])c5)cc4)CC3)c2)c(-c2ccc(Cl)cc2)n1C(C)C [Compound 15, (R)-5-(4-Chlorophenyl)-4-(3-(4-(4-(4-((4-(dimethylamino)-1-(phenylthio)butan-2-yl)amino)-3-nitrophenylsulfonamido)phenyl)piperazin-1-yl)phenyl)-1-isopropyl-2-methyl-1H-pyrrole-3-carboxylic acid]
Cell death induction in H146 at 10 nM (H146 cell line [1]): induce robust cell death | Cell death induction in H146 (H146 cell line [1]): effectively induce cell death in H146 in a dose-dependent manner | Cleavage of caspase-3 and PARP in H146 (H146 cell line [2]): induce cleavage of caspase-3 and poly (ADP- ribose) polymerase (PARP) in a dose-dependent manner | Release of cytochrome C and cleavage of PARP at 30 nM (H146 cancer cells): robust | Release of cytochrome C from mitochondria in H146 cells (H146 cancer cells): induces a release of cytochrome C in a dose-dependent manner | Tolerability in SCID mice (SCID mice): toxic to the animals which had severe weight loss | times more potent than compound 1 in cell growth inhibition ([9]; direct comparison): 10–100 times

Cc1c(C(=O)O)c(-c2cccc(N3CCN(c4ccc(NS(=O)(=O)c5ccc(N[C@H](CCN(C)C)CSc6ccccc6)c([N+](=O)[O-])c5)cc4)CC3)c2)c(-c2ccc(Cl)cc2)n1C1CC1 [Compound 16, (R)-5-(4-Chlorophenyl)-1-cyclopropyl-4-(3-(4-(4-(4-((4-(dimethylamino)-1-(phenylthio)-butan-2-yl)amino)-3-nitrophenylsulfonamido)phenyl)piperazin-1-yl)phenyl)-2-methyl-1H-pyrrole-3-carboxylic acid]
times less potent than 12 in binding to Bcl-2 (Bcl-2 [8]): 10 times

(R)-5-(4-Chlorophenyl)-4-(3-(4-(4-(((4-((4-(dimethylamino)-1-(phenylthio)butan-2-yl)amino)phenyl)sulfonyl)carbamoyl)phenyl)piperazin-1-yl)phenyl)-1,2-dimethyl-N-(3-(4-methylpiperazin-1-yl)propyl)-1H-pyrrole-3-carboxamide [Compound 9]
IC50 ([6]; read-out: Cell Growth Inhibition (IC50 ± SD) H146, H146): > 10 µM | IC50 ([7]; read-out: Cell Growth Inhibition (IC50 ± SD) H1417, H1417): > 10 µM | IC50 [11]: > 10 µM
